Measurements as given in paper PMC7870773, “Investigation of the cytotoxicity of bioinspired coumarin analogues towards human breast cancer cells” (Molecular Diversity, 2020).

Assays:
[1] = tested on: MCF-7 breast cancer cells; assay: MTT cell viability, 48-h incubation, complete medium, MCF-7; type: cell-based, human; conditions: for IC50: Homo sapiens, MCF7, 48-h incubation, complete medium, mean ± SD
Protocol: (§1) Unless otherwise specified, all cell culture experiments were performed in a humidified 5% (v/v) CO2 air atmosphere at 37 °C in complete medium, and cell culture growth media were supplemented with 10% (v/v) foetal bovine serum and 2 mM L-glutamine. Human breast adenocarcinoma cell lines were cultured, maintained at densities lower than 1 × 10^6 cells/cm^2 and discarded upon reaching passage number 60. Stromal healthy cells (human colorectal fibroblasts, 18Co) were cultured using complete DMEM medium supplemented also with 1% (v/v) penicillin–streptomycin. Cells were maintained at densities less than 1 × 10^6 cells/cm^2 and discarded upon reaching passage number 12.
(§2) The full library of coumarins was tested in both breast cancer cell lines, i.e. MCF-7 and MDA-MB-231. Fibroblast were used as “healthy” control. Stocks of compounds 3a–3c, 4a–4m and 5 were dissolved in pure DMSO and then diluted in complete media. (Note that DMSO concentration was kept lower than 0.5% (v/v).) Briefly, MCF-7 and MDA-MB-231 cells were seeded in 96-well plates (3799, Corning Inc., NY, USA) at a density of 1 × 10^4 and 6.7 × 10^3 cells/cm^2, respectively, whereas 18Co fibroblasts were seeded at a density of 1 × 10^4 cells/cm^2. Cells were incubated with coumarin derivatives at concentrations 0.1, 1, 10, 50, 100 and 250 μM for 48 h. Untreated cells (negative) and cells incubated with 0.5% (v/v) DMSO in complete media (positive) were used as controls.
(§3) For each treatment, cell viability was measured via MTT assay after 48-h incubation as following described. Cell culture medium was replaced with 150 μL of fresh medium and 30 μL of MTT solution, and cells were incubated for 4 h (37 °C, 5% CO2). After the formazan crystal formation, cell culture medium was removed from each well and replaced with 200 μL of DMSO. The absorbance was measured at 540-nm wavelength using a plate reader (Synergy 2 Biotek plate reader, Gen5 software).
(§4) IC50 values were calculated (nonlinear regression, normalized response–variable slope) with GraphPad Prism (version 7.04). Values were ranked and classified as: high toxicity, moderate toxicity, poor toxicity and no toxicity. Threshold were set as 60, 80 and > 100 μM, respectively. The selection was used in order to test only the most toxic coumarins under cell culture condition more relevant to the tumour microenvironment, i.e. deprived cell culture media (Sect. 3.3).

[2] = tested on: MDA-MB-231 breast cancer cells; assay: MTT cell viability, 48-h incubation, complete medium, MDA-MB-231; type: cell-based, human; conditions: for IC50: Homo sapiens, MDA-MB-231, complete medium, mean ± SD
Protocol: as §1, §2, §3, §4

18Co colon fibroblasts = assay: MTT cell viability, 48-h incubation, 18Co fibroblasts (healthy control); type: cell-based, human; conditions: for IC50: Homo sapiens, Fibroblast, 48-h incubation, healthy control, mean ± SD
Protocol: as §1, §2, §3, §4

[3] = tested on: MCF-7 breast cancer cells; assay: MTT cell viability under nutrient-deprived conditions, MCF-7; type: cell-based; conditions: Homo sapiens, MCF7, up to 48 h, average ± SD
Protocol: (§5) Cells were culture using nutrient-deprived cell culture conditions (i.e. cell culture media with no glucose, L-glutamine, HEPES and sodium pyruvate) to mimic conditions similar to the tumour microenvironment. Note that these experiments were performed only using breast cancer cells. MCF-7 and MDA-MB-231 cells were seeded in 96-well plates (Corning Inc., NY, USA) at a density of 1 × 10^4 and 6.7 × 10^3 cells/cm^2, respectively. Cells were incubated with coumarin derivatives at concentrations of 0.1, 1, 10, 50, 100 and 250 μM up to 48 h. Untreated cells (negative) and cells incubated with 0.5% (v/v) DMSO in complete media (positive) were used as controls.
as §3, §4
(§6) On that basis, we exposed the breast cancer cells to nutrient-deprived conditions where culture media were supplemented only with 2.5% v/v FBS, but not additional glucose, L-glutamine, sodium pyruvate. The coumarins tested were auraptene (4k), umbelliprenin (4l) and analogues 4d, 4c and 4g. […] In similar studies, Zhang et al. and Jun et al. reported the high preferential cytotoxicity of umbelliprenin (4l) and its C6 analogue under NDC against pancreatic cancer cells. It should be therefore noted that these derivatives could represent a potential new tool for treating aggressively metastatic hypoxic tumours. The exact mechanism of action, though, should be further investigated.

[4] = tested on: MDA-MB-231 breast cancer cells; assay: MTT cell viability under nutrient-deprived conditions, MDA-MB-231; type: cell-based; conditions: Homo sapiens, up to 48 h, average ± SD
Protocol: as §5, §3, §4, §6

Row | Compound | IC50 [1] [µM] | IC50 [2] [µM] | melting point [°C] | fold more cytotoxic than monosubstituted analogue 4a ([1]; MCF-7 cells, 4g versus 4a) | IC50 (18Co colon fibroblasts) [µM] | IC50 [3] [µM] | IC50 [4] [µM] | cytotoxicity in words, MDA-MB-231 [2] | toxicity in words, 18Co fibroblasts (18Co colon fibroblasts; healthy control cells)
1 | CC(C)=CCOc1ccc2c(C)cc(=O)oc2c1 [4a, 7-Prenyloxy-4-methyl-2H-chromen-2-one] | 179 ± 35 | 169 ± 23 | 84 |  |  |  |  |  | 
2 | CC(=O)Oc1cc(OC(C)=O)c2c(C)cc(=O)oc2c1 [compound 5, 5,7-Diacetyloxy-4-methyl-2H-chromen-2-one] | > 250 | > 250 |  |  |  |  |  |  | 
3 | CC(C)=CCOc1cc(OCC=C(C)C)c2c(C)cc(=O)oc2c1 [4g, 5,7-Diprenyloxy-4-methyl-2H-chromen-2-one] | 69 ± 14 | 144 ± 16 | 90 | approximately 2.5 times | 216 ± 23 | 35 ± 9 | 11 ± 2 |  | 
4 | O=c1ccc2ccc(O)cc2o1 [3c, 7-hydroxy-coumarin] | > 250 | > 250 |  |  | > 250 |  |  |  | 
5 | CCCCCCCCOc1ccc2c(CCC)cc(=O)oc2c1 [4f, 7-Octyloxy-4-propyl-2H-chromen-2-one] | 124 ± 39 | 143 ± 34 | 47 |  |  |  |  |  | 
6 | Cc1cc(=O)oc2cc(O)cc(O)c12 [3b, 5,7-Dihydroxy-4-methyl-2H-chromen-2-one] | > 250 | > 250 |  |  |  |  |  |  | 
7 | CC(C)=CCC/C(C)=C/COc1ccc2c(C)cc(=O)oc2c1 [4b, 7-Geranyloxy-4-methyl-2H-chromen-2-one] | 129 ± 13 | 137 ± 9 |  |  |  |  |  |  | 
8 | CCCc1cc(=O)oc2cc(OCC=C(C)C)cc(OCC=C(C)C)c12 [4h, 5,7-Diprenyloxy-4-propyl-2H-chromen-2-one] | 234 ± 76 | 159 ± 61 | 71 to 72 |  |  |  |  |  | 
9 | CCCc1cc(=O)oc2cc(O)ccc12 [3a, 7-Hydroxy-4-propyl-2H-chromen-2-one] | 225 ± 19 | 206 ± 9 | 130 |  |  |  |  |  | 
10 | COc1cccc2c1C(=O)c1c(O)c3c(c(O)c1C2=O)C[C@@](O)(C(=O)CO)C[C@@H]3O[C@H]1C[C@H](N)[C@H](O)[C@H](C)O1 [doxorubicin, reference compound] | 0.97 | 0.48 |  |  |  |  |  |  | 
11 | CC(C)=CCCC(C)=CCCC(C)=CCOc1ccc2ccc(=O)oc2c1 [4l, 7-Farnesyloxy-coumarin] | 98 ± 9 | 88 ± 3 |  |  | > 250 | 9 ± 1 | 7 ± 2 |  | 
12 | CC(C)=CCCC(C)=CCCC(C)=CCOc1ccc2c(C)cc(=O)oc2c1 [4c, 7-Farnesyloxy-4-methyl-2H-chromen-2-one] | 105 ± 3 | 110 ± 29 |  |  | > 250 | 19 ± 3 | 51 ± 9 |  | 
13 | CCCCCCCCOc1ccc2c(C)cc(=O)oc2c1 [4d, 4-Methyl-7-octyloxy-2H-chromen-2-one] | 82 ± 19 | 113 ± 7 | 51 |  | 206 ± 17 | 29 ± 3 | 63 ± 5 | slight toxic effect | 
14 | CC(C)=CCC/C(C)=C/COc1ccc2ccc(=O)oc2c1 [4k, 7-Geranyloxy-2H-chromen-2-one] | 70 ± 5 | 60 ± 4 |  |  | 176 ± 62 | 14 ± 5 | 12 ± 8 |  | some toxicity
15 | CC(C)=CCC/C(C)=C/CC/C(C)=C/CC/C(C)=C/COc1ccc2ccc(=O)oc2c1 [4m, 7-Geranylgeranyloxy-coumarin] | > 250 | 187 ± 66 | 72 to 73 |  |  |  |  |  | 
16 | CCCc1cc(=O)oc2cc(OCC=C(C)C)ccc12 [4e, 7-Prenyloxy-4-propyl-2H-chromen-2-one] | > 250 | > 250 | 89 |  |  |  |  |  | 
17 | CC(C)=CCOc1ccc2ccc(=O)oc2c1 [4j, 7-Prenyloxy-2H-chromen-2-one] | 143 ± 11 | 175 ± 33 |  |  |  |  |  |  | 
18 | CCCc1cc(=O)oc2cc(OC/C=C(\C)CCC=C(C)C)cc(OC/C=C(\C)CCC=C(C)C)c12 [4i, 5,7-Digeranyloxy-4-propyl-2H-chromen-2-one] | > 250 | 133 ± 34 | 79 |  |  |  |  |  | 
